Results reported in patent US20240228469A1, “PCSK9 INHIBITORS AND METHODS OF USE THEREOF” (AstraZeneca AB, priority 2022, published 2024).

What was measured:
[1] = molecular target: GSK3β (Glycogen synthase kinase-3 beta) (Homo sapiens, UniProt P49841); assay: Assay 6 GSK3β assay (ThermoFisher Z-Lyte FRET); format: biochemical; conditions: ATP Conc: 10 μM, geometric mean; read-out: Assay 6 (GSK3β FRET-Z-Lyte Cr) GMean IC50
Outline: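 Z-Lyte FRET: 0.22-0.92 ng kinase with 2 μM Ser/Thr 09 peptide in HEPES pH 7.5, MgCl2, EGTA, 60 min at room temperature, then 60 min development. Compounds in 1% DMSO, 10-point 3-fold series from 10 μM; sigmoidal dose-response fit.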

PCSK9 = PCSK9 (Homo sapiens, UniProt Q8NBP7); assay: Assay 2 Biophysical human PCSK9 assay (SPR, Biacore); format: binding; parameters: biotinylated human PCSK9 (31-692)-Avi-His6; His6 (C); conditions: single-cycle kinetics, 30° C., geometric mean, read-out: Assay 2 (PCSK9 BIAcore DBA Cr) GMean Kd
Method: The SPR binding experiments were performed on a Biacore S200 optical biosensor unit at 30° C. A Series S Sensor Chip SA that is designed to bind biotinylated molecules for interaction analysis in Biacore systems was equilibrated at room temperature prior to use. The running buffer for protein tethering and subsequent ligand binding experiments was 10 mM HEPES pH 7.4, 150 mM NaCl, 0.05% (v/v) Tween 20 pH 7.4.
For the surface tethering of PCSK9, biotinylated human PCSK9 (31-692)-Avi-His6 at a concentration of 0.5 mg/mL was used. Prior to the surface tethering, the surface was exposed to a solution of 50 mM NaOH, 500 mM NaCl via 3 consecutive injections of this solution with a contact time of 60 s and a flowrate of 10 μL min^−1 to remove non-conjugated streptavidin. The PCSK9 protein was diluted to a concentration of 20 μg/mL using running buffer and injected with a contact time of 180-300 s and a flowrate of 10 μL min^−1 over a single flow channel (typically flow channel 2 or flow channel 4) with the aim to achieve protein capture levels of >5000 response units (RU). Remaining biotin binding sites were blocked via 2 consecutive injections of a 10 μM D-biotin solution in running buffer with a contact time of 60 s and a flowrate of 10 μL min^−1 over all flow-channels. Flow-channels 1 and 3 typically served as a reference surface throughout the subsequent binding experiments.
The binding experiments were all performed at a flow rate of 30 PL min^−1 and by employing the method of single-cycle kinetics. This approach involves the sequential injection of a compound concentration series without regeneration steps. A contact time between 90-150 s was selected, which was followed by a 40 min dissociation phase to allow for a proper estimation of the dissociation rate constant. Test compounds were delivered in DMSO at a concentration of 10 mM and a digital dispenser HP D300 was used to set up the compound concentration series using 6 concentrations. The tested concentrations have been 30, 100, 300, 1000, 3000 and 10000 nM. Prior to injecting any compound, the surfaces were equilibrated by injecting running buffer over them in three separate pulses. The data collection rate was set to 10 Hz.
The raw sensorgrams of the compound injections were first subjected to reference subtraction (subtracting the signal from flow channel 1 and/or 3 from the signal from channels 2 and/or 4 respectively) and then blank subtraction (subtracting the signal from injecting DMSO controls from the reference subtracted data). The resulting double-referenced sensorgrams were then fitted using a 1:1 binding interaction model using the manufactures software package to extract kinetic- and affinity data. Active compounds have been defined by creating a detectable binding signal at the highest compound concentration ([…]) of 3 RUs. Kinetic- and affinity data on active compounds are only provided for those compounds where the binding signal at the highest compound concentration ([…]) is 50% of the theoretical maximum binding signal for a 1:1 binding interaction (Rmax, typically between 15-20 RUs) in order to enable a proper fitting of the data.

Sequence of PCSK9 (Q8NBP7 31-692): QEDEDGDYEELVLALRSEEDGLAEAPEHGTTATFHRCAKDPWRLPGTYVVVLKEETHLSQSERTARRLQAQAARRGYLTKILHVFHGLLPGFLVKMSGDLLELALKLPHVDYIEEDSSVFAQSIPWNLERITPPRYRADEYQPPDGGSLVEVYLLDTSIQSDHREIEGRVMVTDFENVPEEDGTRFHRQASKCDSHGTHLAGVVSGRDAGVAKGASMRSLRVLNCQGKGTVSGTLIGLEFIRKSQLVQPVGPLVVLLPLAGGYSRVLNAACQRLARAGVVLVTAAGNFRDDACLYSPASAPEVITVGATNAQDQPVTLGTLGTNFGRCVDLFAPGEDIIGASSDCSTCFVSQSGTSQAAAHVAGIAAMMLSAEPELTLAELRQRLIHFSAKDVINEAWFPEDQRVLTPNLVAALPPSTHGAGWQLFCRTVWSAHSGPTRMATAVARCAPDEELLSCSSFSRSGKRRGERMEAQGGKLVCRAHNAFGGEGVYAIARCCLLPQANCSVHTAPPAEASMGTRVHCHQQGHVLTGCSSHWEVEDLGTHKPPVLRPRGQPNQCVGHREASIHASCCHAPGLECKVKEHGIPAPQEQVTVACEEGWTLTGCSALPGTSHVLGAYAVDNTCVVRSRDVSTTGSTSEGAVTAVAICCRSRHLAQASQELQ
Sequence of GSK3β (Glycogen synthase kinase-3 beta) (P49841 whole entry): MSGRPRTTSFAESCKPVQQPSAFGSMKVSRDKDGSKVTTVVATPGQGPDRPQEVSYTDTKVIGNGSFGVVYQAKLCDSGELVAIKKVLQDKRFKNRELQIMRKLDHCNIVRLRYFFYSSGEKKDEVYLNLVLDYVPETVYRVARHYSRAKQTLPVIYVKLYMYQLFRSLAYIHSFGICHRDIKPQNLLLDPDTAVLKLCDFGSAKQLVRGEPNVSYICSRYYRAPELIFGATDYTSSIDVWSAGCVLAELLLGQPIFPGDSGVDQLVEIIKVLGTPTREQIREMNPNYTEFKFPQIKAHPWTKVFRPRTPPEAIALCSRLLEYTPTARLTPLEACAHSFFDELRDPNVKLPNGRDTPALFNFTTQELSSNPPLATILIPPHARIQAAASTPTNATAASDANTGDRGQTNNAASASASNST

`O=c1ccccn1-c1ccc(N[C@H]2CC[C@H](Nc3ncc(C4CC4)nn3)C2)nc1` [Example 50, 6′-(((1S,3S)-3-((6-Cyclopropyl-1,2,4-triazin-3-yl)amino)cyclopentyl)amino)-2H-[1,3′-bipyridin]-2-one] showed an IC50 [1] greater than 10 µM and a Kd (PCSK9) of 0.0098 µM.
`O=c1c(C(F)(F)F)cccn1-c1ccc(N[C@H]2CC[C@H](Nc3ncc(C4CC4)nn3)C2)nc1` [Example 51, 6′-(((1S,3S)-3-((6-Cyclopropyl-1,2,4-triazin-3-yl)amino)cyclopentyl)amino)-3-(trifluoromethyl)-2H-[1,3′-bipyridin]-2-one] was tested, and the IC50 [1] was greater than 10 µM and the Kd (PCSK9) was 0.0009 µM.
`O=c1c(OC(F)(F)F)cccn1-c1ccc(N[C@H]2CC[C@H](Nc3ncc(C4CC4)nn3)C2)nc1` [Example 52, 6′-(((1S,3S)-3-((6-Cyclopropyl-1,2,4-triazin-3-yl)amino)cyclopentyl)amino)-3-(trifluoromethoxy)-2H-[1,3′-bipyridin]-2-one] gave an IC50 [1] greater than 10 µM and a Kd (PCSK9) of 0.0007 µM.
`O=c1c(Cl)cccn1-c1ccc(N[C@H]2CC[C@H](Nc3ncc(C4CC4)nn3)C2)nc1` [Example 55, 3-Chloro-6′-(((1S,3S)-3-((6-cyclopropyl-1,2,4-triazin-3-yl)amino)cyclopentyl)amino)-2H-[1,3′-bipyridin]-2-one] showed an IC50 [1] of 1.6 µM and a Kd (PCSK9) of 0.0004 µM.
Compound `N#Cc1ccc(=O)n(-c2ccc(N[C@H]3CC[C@H](Nc4ncc(C5CC5)nn4)C3)nc2)c1` [Example 56, 6′-(((1S,3S)-3-((6-Cyclopropyl-1,2,4-triazin-3-yl)amino)cyclopentyl)amino)-2-oxo-2H-[1,3′-bipyridine]-5-carbonitrile] has an IC50 [1] greater than 10 µM and a Kd (PCSK9) of 0.0074 µM.
Work on `CN1CC(=O)N(c2ccc(N[C@H]3CC[C@H](Nc4ncc(C5CC5)nn4)C3)nc2)C1=O` [Example 57, 3-(6-(((1S,3S)-3-((6-Cyclopropyl-1,2,4-triazin-3-yl)amino)cyclopentyl)amino)pyridin-3-yl)-1-methylimidazolidine-2,4-dione] yielded an IC50 [1] greater than 10 µM and a Kd (PCSK9) of 0.0075 µM.
Work on `N#Cc1cccn(-c2ccc(N[C@H]3CC[C@H](Nc4ncc(C5CC5)nn4)C3)nc2)c1=O` [Example 58, 6′-(((1S,3S)-3-((6-Cyclopropyl-1,2,4-triazin-3-yl)amino)cyclopentyl)amino)-2-oxo-2H-[1,3′-bipyridine]-3-carbonitrile] yielded an IC50 [1] greater than 10 µM and a Kd (PCSK9) of 0.0022 µM.
Compound `CN1C(=O)CN(c2ccc(N[C@H]3CC[C@H](Nc4ncc(C5CC5)nn4)C3)nc2)C1=O` [Example 62, 1-(6-(((1S,3S)-3-((6-Cyclopropyl-1,2,4-triazin-3-yl)amino)cyclopentyl)amino)pyridin-3-yl)-3-methylimidazolidine-2,4-dione] has an IC50 [1] greater than 10 µM and a Kd (PCSK9) of 0.0043 µM.
For `Cn1c(=O)n(-c2ccc(N[C@H]3CC[C@H](Nc4ncc(C5CC5)nn4)C3)nc2)c2ncccc21` [Example 63, 3-(6-(((1S,3S)-3-((6-Cyclopropyl-1,2,4-triazin-3-yl)amino)cyclopentyl)amino)pyridin-3-yl)-1-methyl-1,3-dihydro-2H-imidazo[4,5-b]pyridin-2-one], the IC50 [1] was greater than 10 µM and the Kd (PCSK9) was 0.0014 µM.
With `COc1cccn(-c2ccc(N[C@H]3CC[C@H](Nc4ncc(C5CC5)nn4)C3)nc2)c1=O` [Example 64, 6′-(((1S,3S)-3-((6-Cyclopropyl-1,2,4-triazin-3-yl)amino)cyclopentyl)amino)-3-methoxy-2H-[1,3′-bipyridin]-2-one] the IC50 [1] was 0.385 µM and the Kd (PCSK9) was 0.0004 µM.
`COc1ccc(=O)n(-c2ccc(N[C@H]3CC[C@H](Nc4ncc(C5CC5)nn4)C3)nc2)c1` [Example 65, 6′-(((1S,3S)-3-((6-Cyclopropyl-1,2,4-triazin-3-yl)amino)cyclopentyl)amino)-5-methoxy-2H-[1,3′-bipyridin]-2-one] gave an IC50 [1] of 0.014 µM and a Kd (PCSK9) of 0.0058 µM.
Work on `Cc1cccn(-c2ccc(N[C@H]3CC[C@H](Nc4ncc(C5CC5)nn4)C3)nc2)c1=O` [Example 66, 6′-(((1S,3S)-3-((6-Cyclopropyl-1,2,4-triazin-3-yl)amino)cyclopentyl)amino)-3-methyl-2H-[1,3′-bipyridin]-2-one] yielded an IC50 [1] greater than 10 µM and a Kd (PCSK9) of 0.0015 µM.
For `Cc1cnc(N[C@H]2CC[C@H](Nc3ccc(-n4ccccc4=O)cn3)C2)nn1` [Example 67, 6′-(((1S,3S)-3-((6-Methyl-1,2,4-triazin-3-yl)amino)cyclopentyl)amino)-2H-[1,3′-bipyridin]-2-one], the IC50 [1] was 2.1 µM and the Kd (PCSK9) was 0.017 µM.
Work on `C#CCNC(=O)c1cnc(N[C@H]2CC[C@H](Nc3ccc(-n4ccccc4=O)cn3)C2)nn1` [Example 69, 3-(((1S,3S)-3-((2-Oxo-2H-[1,3′-bipyridin]-6′-yl)amino)cyclopentyl)amino)-N-(prop-2-yn-1-yl)-1,2,4-triazine-6-carboxamide] yielded an IC50 [1] greater than 10 µM and a Kd (PCSK9) of 0.012 µM.
`O=C(NC1COC1)c1cnc(N[C@H]2CC[C@H](Nc3ccc(-n4ccccc4=O)cn3)C2)nn1` [Example 70, N-(Oxetan-3-yl)-3-(((1S,3S)-3-((2-oxo-2H-[1,3′-bipyridin]-6′-yl)amino)cyclopentyl)amino)-1,2,4-triazine-6-carboxamide] showed an IC50 [1] greater than 10 µM and a Kd (PCSK9) of 0.021 µM.
With `CNC(=O)c1cnc(N[C@H]2CC[C@H](Nc3ccc(-n4ccccc4=O)cn3)C2)nn1` [Example 75, N-Methyl-3-(((1S,3S)-3-((2-oxo-2H-[1,3′-bipyridin]-6′-yl)amino)cyclopentyl)amino)-1,2,4-triazine-6-carboxamide] the IC50 [1] was greater than 10 µM and the Kd (PCSK9) was 0.016 µM.
In the case of `O=c1ccc(Cl)cn1-c1ccc(N[C@H]2CC[C@H](Nc3ncc(C4CC4)nn3)C2)nc1` [Example 112, 5-Chloro-6′-(((1S,3S)-3-((6-cyclopropyl-1,2,4-triazin-3-yl)amino)cyclopentyl)amino)-2H-[1,3′-bipyridin]-2-one], the IC50 [1] is reported as 6.4 µM and the Kd (PCSK9) is reported as 0.0039 µM.
`O=c1ccncn1-c1ccc(N[C@H]2CC[C@H](Nc3ncc(C4CC4)nn3)C2)nc1` [Example 114, 3-(6-(((1S,3S)-3-((6-Cyclopropyl-1,2,4-triazin-3-yl)amino)cyclopentyl)amino)pyridin-3-yl)pyrimidin-4(3H)-one] showed an IC50 [1] greater than 10 µM and a Kd (PCSK9) of 0.0053 µM.
For `Cn1c(=O)n(-c2ccc(N[C@H]3CC[C@H](Nc4ncc(C5CC5)nn4)C3)nc2)c2cc(C#N)ccc21` [Example 116, 3-(6-(((1S,3S)-3-((6-Cyclopropyl-1,2,4-triazin-3-yl)amino)cyclopentyl)amino)pyridin-3-yl)-1-methyl-2-oxo-2,3-dihydro-1H-benzo[d]imidazole-5-carbonitrile], the IC50 [1] was greater than 10 µM and the Kd (PCSK9) was 0.0003 µM.
In the case of `Cn1c(=O)n(-c2ccc(N[C@H]3CC[C@H](Nc4ncc(C5CC5)nn4)C3)nc2)c2ccc(C#N)cc21` [Example 117, 1-(6-(((1S,3S)-3-((6-Cyclopropyl-1,2,4-triazin-3-yl)amino)cyclopentyl)amino)pyridin-3-yl)-3-methyl-2-oxo-2,3-dihydro-1H-benzo[d]imidazole-5-carbonitrile], the IC50 [1] is reported as greater than 10 µM and the Kd (PCSK9) is reported as 0.0009 µM.
Work on `O=c1cccnn1-c1ccc(N[C@H]2CC[C@H](Nc3ncc(C4CC4)nn3)C2)nc1` [Example 118] yielded an IC50 [1] greater than 10 µM and a Kd (PCSK9) of 0.0085 µM.
`Cn1c(=O)n(-c2ccc(N[C@H]3CC[C@H](Nc4ncc(C5CC5)nn4)C3)nc2)c2ccc(C(=O)O)cc21` [Example 121, 1-(6-(((1S,3S)-3-((6-Cyclopropyl-1,2,4-triazin-3-yl)amino)cyclopentyl)amino)pyridin-3-yl)-3-methyl-2-oxo-2,3-dihydro-1H-benzo[d]imidazole-5-carboxylic acid] gave an IC50 [1] of 5.05 µM and a Kd (PCSK9) of 0.0016 µM.
Compound `Cc1cnc(N[C@H]2CC[C@H](Nc3ccc(-n4cc(C#N)ccc4=O)cn3)C2)nn1` [Example 128, 6′-(((1S,3S)-3-((6-Methyl-1,2,4-triazin-3-yl)amino)cyclopentyl)amino)-2-oxo-2H-[1,3′-bipyridine]-5-carbonitrile] has an IC50 [1] greater than 10 µM and a Kd (PCSK9) of 0.03 µM.
